# Laboratory results from PubChem BioAssay AID1508612.
# Assay: passive permeability, PAMPA, ADME assay (AID 1508612)
# Conditions: pH 7.4, 30.0 min, 50.0 µM
row,SMILES,Papp [×10⁻⁶ cm/s]
1,COc1ncccc1-c1cc2c(ccn2CC2CCN([S+](C)(=O)[O-])CC2)c(N2CCOCC2)n1,> 1000
2,Nc1c(-c2ccccc2)cc[nH]c1=O,613
3,COC(=O)C1=C(C)NC(C)=C(C(=O)O[C@@H]2CCCN(Cc3ccccc3)C2)[C@@H]1c1cccc([N+](=O)[O-])c1,950
4,Cc1ccc(S(=O)(=O)Nc2ccccc2C(=O)Nc2nc(-c3ccc(Cl)cc3)cs2)cc1,16.6
5,CC(C)(C)C1CCc2c(sc(NC(=O)c3ccncc3)c2C(N)=O)C1 (stereo unspecified),581
6,Cc1ccc(S(=O)(=O)Nc2ccccc2C(=O)Nc2nc(-c3ccccc3)co2)cc1,358
7,Clc1ccccc1Nc1nc(-c2ccncc2)nc2ccccc12,> 1000
8,CC(=O)c1c(C)n(-c2ccccc2)c2ccc(O)cc12,779
9,CCOc1ccc(N2CC(c3nc(-c4cc(OC)c(OC)c(OC)c4)no3)CC2=O)cc1 (stereo unspecified),> 1000
10,COc1ccc(CCN2C(=O)N(c3ccc(F)cc3)C(=O)C2CC(=O)Nc2ccc(F)c(F)c2)cc1 (stereo unspecified),719
11,Clc1ccccc1-c1nnc2sc(-c3ccc4c(c3)OCO4)nn12,958
12,CCOc1ccccc1N(CC(=O)N1CCOCC1)S(=O)(=O)c1ccc(SC)cc1,550
13,Cc1noc(/C=C/c2ccccc2F)c1S(=O)(=O)N1CCC(C(=O)Nc2ccc(C#N)cc2)CC1,8.58
14,COc1ccc(-c2ccc(C(=O)NC3CC(c4cc(=O)[nH]c(N)n4)C3)o2)cc1 (stereo unspecified),20.9
15,CC(C)(C)c1ccc(-c2csc(N3CCC(C(N)=O)CC3)n2)cc1,370
16,Clc1ccccc1-c1nc(NCc2ccc(-c3cccnc3)cc2)c2ccccc2n1,944
17,NC(=O)C1CCN(c2nc(-c3cccc(N)c3)cs2)CC1,86.8
18,CNC(=O)C1CCN(C(=O)c2ccc(-c3ncc4cnc(-c5ccccc5)cn34)cc2)CC1,15.4
19,OCCNc1ncnc2c1ncn2[C@@H]1O[C@@H](CO)[C@H](O)[C@@H]1O,< 1
20,CCOC(=O)c1c[nH]c2c3c(ccc2c1=O)CCCC3,434
21,NC(=O)C1CCN(c2nc(-c3ccccc3F)cs2)CC1,558
22,C[C@H]1CN(C(=O)Nc2ccc(F)cc2)C[C@@H]1c1nc(-c2ccccc2)no1,> 1000

row,SMILES,Papp [×10⁻⁶ cm/s]
1,COc1ccc(C(=O)Nc2ccc3c(c2)N(C2CCCC2)C(=O)c2ccccc2S3)cc1OC,15.7
2,O=C(Nc1nc(-c2ccccc2)cs1)c1ccncc1NS(=O)(=O)c1ccc(N2CCCC2=O)cc1,314
3,COc1ccc2nc(C)cc(Nc3ccc(Cl)c(Cl)c3)c2c1,> 1000
4,COc1ccc(C(=O)Nc2nc(-c3ccccc3)cs2)cc1NS(=O)(=O)c1ccc(C)cc1,14.9
5,CCOC(=O)N1CCN(Cc2nc3cc(NC(=O)CC(C)C)ccc3n2C(C)C)CC1,613
6,Cc1nn2c(c1-c1ccccc1-c1ccccc1)N(CCC(C)C)CCC2,532
7,FC(F)(F)c1cc(-c2ccc(CNc3nc(-c4ccccc4C(F)(F)F)nc4ccsc34)cc2)ccn1,455
8,COc1ccc(S(=O)(=O)N2CCOCC2)cc1NC(=O)c1cccc(-n2cccc2)c1,< 1
9,CCOC(=O)c1c(NC(=O)CN2CCCCC2)sc2c1CCN(C(=O)OCC)C2,> 1000
10,CC(C)Nc1oc(-c2cccc3ccccc23)nc1C#N,> 1000
11,CN(C)C(=O)C1CCN(c2nc(-c3ccc(Br)cc3)cs2)CC1,583
12,Cc1cccc2nc(-c3ccccn3)c(Nc3ccc(F)cc3)n12,> 1000
13,CCC(CC)c1cc([C@H]2CN3CC[C@H]2C[C@@H]3CNC(=O)Cc2cccs2)nc(-c2ccncc2)n1,448
14,Cc1cccc(C)c1C(=O)Nc1cccc([S+](=O)([O-])N(C)C)c1,355
15,O=S(=O)(Nc1nccs1)c1ccc(NCc2cc(F)ccc2O)cc1,8.23
16,Oc1ccc(CNc2cccnc2)c2cccnc12,371
17,Cc1cccc(N(C)c2nc3ccccc3c3nnc(C)n23)c1,> 1000
18,COc1ccccc1CNc1ccc(N2CCCCC2)cc1,> 1000
19,CN(C)CCOC1=Cc2ccccc2Sc2ccc(Cl)cc21,996
20,O=C(Cc1ccc(Cl)c(Cl)c1)Nc1ccc(S(=O)(=O)Nc2cncnc2)cc1,1.5
21,N#Cc1ccccc1Nc1ncc(-c2cccc3ccccc23)o1,379
22,CCOC(=O)N1CCN(C(=O)Cn2sc3nc(C)cc(C)c3c2=O)CC1,47.1

row,SMILES,Papp [×10⁻⁶ cm/s]
1,COc1cc(Cl)cn2c(-c3cccc(NC4CNC4)n3)cnc12,6.1
2,Fc1ccc(-c2ccc(Nc3nc(-c4ccncc4)nc4ccccc34)cc2F)c(Cl)c1,20.9
3,Cn1nnnc1Sc1ncnc2scc(-c3cccc(S(C)(=O)=O)c3)c12,93.9
4,NC(=O)c1ccc(-c2ncc3cnc(-c4cccc(F)c4)cn23)cc1,480
5,CC1Oc2cc3c(-c4c(O)cc(O)c5c(O)c6c(cc45)OC(C)C(C)C6=O)c(O)cc(O)c3c(O)c2C(=O)C1C (stereo unspecified),8.5
6,Cc1ccc2oc(NC3=NC4(CCCC4)C4=C(CCCC4=O)N3)nc2c1,543
7,Clc1ccccc1-c1nccc(-n2ccnc2)n1,> 1000
8,Cc1ccccc1C(=O)N1CCc2cc(-c3nc(NC(=O)Cc4ccccc4)sc3C)ccc21,> 1000
9,Cc1ccc(S(=O)(=O)Nc2ccccc2C(=O)Nc2ccc(-c3ccccc3)nc2)cc1,54.3
10,COc1ccc(CN2C(=O)[C@@H]3C[C@@H](CN3Cc3cccs3)Oc3ccccc32)cc1,900
11,CC(C)(N)CNC(=O)CC1CCC2(CC1)OOC1(O2)C2CC3CC(C2)CC1C3 (stereo unspecified),488
12,Cc1nnc2n1-c1ccc(Cl)cc1C(c1ccccc1)=NC2,125
13,CC(C)c1ccc(OCc2nc3c(n2Cc2ccccc2)C(=O)N(CC2CCOCC2)CCN3)cc1,> 1000
14,CNc1oc(-c2cccc(Cl)c2Cl)nc1C#N,505
15,CCN1C(=O)c2ccccc2[S@](=O)c2ccc(C(=O)NCc3ccc(F)cc3)cc21,> 1000
16,CCOc1ccc(CN2C(=O)c3ccccc3Sc3ccc(C(=O)NC4CCC(C)CC4)cc32)cc1 (stereo unspecified),< 1
17,CC(=O)c1ccc(N2CCN(S(=O)(=O)c3ccc4c(c3)CC(=O)N4)CC2)cc1,429
18,COc1ccc(C2Nc3ccccc3C(=O)N2Cc2cccnc2)cc1COc1c(C)cc(NC(C)=O)cc1C (stereo unspecified),> 1000
19,Cc1ccc(S(=O)(=O)Nc2cnccc2C(=O)Nc2nc(-c3cc4ccccc4o3)cs2)cc1,2.48
20,CCOc1ccc(CCNC(=O)c2ccccc2)cc1OCC,580
21,CN(C)c1cccc(-c2cnc(N3CCC(c4ncc[nH]4)CC3)s2)c1,955
22,COc1cccc(C(=O)Nc2nc(-c3nnn(-c4cc(C)ccc4C)c3C)ns2)c1,340

row,SMILES,Papp [×10⁻⁶ cm/s]
1,CNC(=O)c1ccc(-c2cnc3cnc(C(=O)N(C)c4ccc(Cl)cc4)cn23)cc1,120
2,O=C(Nc1nc(-c2ccccc2)cs1)c1ccncc1NS(=O)(=O)c1ccc(F)cc1Cl,> 1000
3,Cc1cc(C)nc(NC(=S)N2CCN(c3nccc(C(F)(F)F)n3)CC2)c1,> 1000
4,CC1=NN(c2ccc(C(=O)O)cc2)C(=O)/C1=C/c1ccc(-c2cc(C)c(C)cc2[N+](=O)[O-])o1,238
5,CN1C(=O)CN=C(c2ccccc2Cl)c2cc(Cl)ccc21,> 1000
6,O=C(Nc1nc(-c2ccccc2)cs1)c1ccncc1NS(=O)(=O)c1cccc2cccnc12,445
7,CCOC(=O)c1[nH]c(C)c(CCC(=O)N2CCN(c3cc(C)ccc3C)CC2)c1C,> 1000
8,CC(=O)c1c(C)[nH]c(C(=O)Nc2ccc(Cl)cc2)c1C,364
9,O=C(Cc1ccc(Cl)c(Cl)c1)Nc1ccc(S(=O)(=O)Nc2ccon2)cc1,9.17
10,Cc1ccc(-c2cc(C(=O)Nc3ccccn3)c3ccccc3n2)cc1,> 1000
11,CC(=O)c1ccc(N2CCN(S(=O)(=O)c3ccc4[nH]c(=O)[nH]c4c3)CC2)cc1,< 1
12,Cc1noc(C)c1-c1ccc(Nc2nc(-c3ccncc3)nc3ccccc23)cc1F,410
13,Nc1nc2c(s1)C(c1cccc(F)c1F)CC(=O)N2 (stereo unspecified),9.86
14,CCCCCCCc1c(C)nc(N2CCOCC2)[nH]c1=O,> 1000
15,CCCc1ccc(-c2csc(NC(=O)c3ccncc3NS(=O)(=O)c3ccc(C)cc3)n2)cc1,755
16,CCOc1ccc(C2C(C(=O)Nc3ccccc3OC)=C(C)Nc3c(C(=O)Nc4cccc(C)c4)cnn32)cc1 (stereo unspecified),871
17,COc1ccc(Nc2ncc(C(=O)Nc3cccc(Cl)c3)c3ccccc23)cc1,67.1
18,Cc1cc(C)c(C(=O)Nc2cccc([S+](=O)([O-])Nc3ccc(Br)cc3)c2)[nH]1,737
19,O=C(Cc1cccs1)NCc1nnc2ccc(-c3ccccc3)nn12,226
20,Cn1c(=O)c2[nH]c(=O)[nH]c2n(C)c1=O,1.71
21,Cn1cc(Br)c(C2N=C(Nc3nc4ccccc4o3)NC3=C2C(=O)CCC3)n1 (stereo unspecified),> 1000
22,COc1ccc(C2Nc3ccccc3C(=O)N2Cc2ccco2)cc1COc1ccc(NC(C)=O)cc1 (stereo unspecified),329

row,SMILES,Papp [×10⁻⁶ cm/s]
1,Cc1ccc(S(=O)(=O)Nc2cnccc2C(=O)Nc2nc(-c3ccc(Oc4ccccc4)cc3)cs2)cc1,44.4
2,CC(=O)NCc1ccc(-c2csc(Nc3cc(C)cc(C)c3)n2)o1,> 1000
3,CNC(=O)C1=C(C)NC(Nc2nc3ccccc3o2)=NC1c1[nH]ncc1Cl (stereo unspecified),17.6
4,C=Cc1ccc(Cn2c(C(=O)O)c(CNC3CCCCC3)c3ccc(OC)cc32)cc1,771
5,Cc1cc(C)cc(NS(=O)(=O)c2ccc3[nH]cc(C(=O)NCc4ccco4)c(=O)c3c2)c1,9.3
6,O=C(Nc1ccc(S(=O)(=O)Nc2nccs2)cc1)c1ccc2ccccc2c1,4.69
7,CS(=O)(=O)c1ccc(-c2csc(N3CCC(C(N)=O)CC3)n2)cc1,74
8,COc1ccc(-c2nc3ncccc3[nH]2)cc1,139
9,COc1cccc(S(=O)(=O)Nc2cnccc2C(=O)Nc2nc(-c3ccccc3)cs2)c1,696
10,Cc1cc(-c2nnc3n2CCCCC3)c(C)n1-c1cccc(C#N)c1,229
11,O=C(Nc1ncnc2sc3c(c12)CCCCC3)c1ccco1,> 1000
12,Cc1ccc(S(=O)(=O)Nc2ccc(F)cc2C(=O)Nc2nc(-c3ccccc3)cs2)cc1,21.4
13,NC(=O)C(=O)N/N=C/c1ccc([N+](=O)[O-])o1,7.99
14,Cn1cnc2c(F)c(Nc3ccc(Br)cc3Cl)c(C(=O)NOCCO)cc21,131
15,Cc1ccc(-n2ncc3c(Nc4cccc(C(=O)O)c4)ncnc32)cc1,13.2
16,CCc1ccc(S(=O)(=O)Nc2cnccc2C(=O)Nc2nc(-c3ccccc3)cs2)cc1,300
17,CC(=O)c1c(C)[nH]c(C(=O)Nc2ccc(C)c(S(=O)(=O)Nc3ccc(Br)cc3)c2)c1C,108
18,CC(C)CN(CC(=O)N(CCCN1CCCC1=O)CC(N)=O)C(=O)CNCCc1ccccc1F,11.6
